Laboratory results reported in the supplement of paper PMC10307832.

Columns and labels:
Test in all cases: relative viability (nuclei count vs DMSO), 5 days (fraction); higher = more cells survive
[1] = compound: COc1cc2nc(N3CCCN(C)CC3)nc(NC3CCN(Cc4ccccc4)CC3)c2cc1OC + C[C@]1(O)C[C@@H](c2nc(-c3ccc4ccc(-c5ccccc5)nc4c3)c3c(N)nccn32)C1 [Linsitinib] (partner 1 µM)
Method in brief: (§1)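 Each reported value is a median over duplicate plates. It expresses relative viability: treated-well nuclei count divided by vehicle-well nuclei count. Lung cancer cell lines in 1536-well plates were dosed by pin tool a day after seeding, alone with one drug or with a fixed anchor-drug dose plus five library-drug doses (not always all listed) in √10 steps, and nuclei were counted after 5 days.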

[2] = compound: Cc1cc([C@@H](C)Nc2ccccc2C(=O)O)c2nc(N3CCOCC3)cc(=O)n2c1 [AZD6482] + C[C@@H](Oc1cc(-c2cnn(C3CCNCC3)c2)cnc1N)c1c(Cl)ccc(F)c1Cl [Crizotinib] (partner 1 µM)
Method in brief: as §1

[3] = compound: Cc1cc([C@@H](C)Nc2ccccc2C(=O)O)c2nc(N3CCOCC3)cc(=O)n2c1 [AZD6482] + Nc1nc2[nH]cc(CCc3ccc(C(=O)N[C@@H](CCC(=O)O)C(=O)O)cc3)c2c(=O)[nH]1 [Pemetrexed] (partner 0.2 µM)
Method in brief: as §1

[4] = compound: Cc1cc([C@@H](C)Nc2ccccc2C(=O)O)c2nc(N3CCOCC3)cc(=O)n2c1 [AZD6482] + O=C(c1cc(Cc2n[nH]c(=O)c3ccccc23)ccc1F)N1CCN(C(=O)C2CC2)CC1 [Olaparib] (partner 8 µM)
Method in brief: as §1

## NCI-H647
[1]; first compound 0.2 µM
  relative viability: 1.17
[1]; first compound 0.6325 µM
  relative viability: 1.03
[1]; first compound 2 µM
  relative viability: 1.14
[1]; first compound 6.325 µM
  relative viability: 0.599
[2]; first compound 0.08 µM
  relative viability: 0.902
[2]; first compound 0.8 µM
  relative viability: 0.748
[2]; first compound 2.53 µM
  relative viability: 0.479
[2]; first compound 8 µM
  relative viability: 0.648
[3]; first compound 0.08 µM
  relative viability: 0.154
[3]; first compound 0.253 µM
  relative viability: 0.161
[3]; first compound 0.8 µM
  relative viability: 0.191
[3]; first compound 2.53 µM
  relative viability: 0.16
[3]; first compound 8 µM
  relative viability: 0.158
[4]; first compound 0.08 µM
  relative viability: 0.544
[4]; first compound 0.253 µM
  relative viability: 0.482
[4]; first compound 0.8 µM
  relative viability: 0.554
[4]; first compound 2.53 µM
  relative viability: 0.373
[4]; first compound 8 µM
  relative viability: 0.419

## NCI-H1792
[1]; first compound 0.2 µM
  relative viability: 0.61
[1]; first compound 0.6325 µM
  relative viability: 0.512
[1]; first compound 2 µM
  relative viability: 0.496
[1]; first compound 6.325 µM
  relative viability: 0.598
[2]; first compound 0.08 µM
  relative viability: 0.909
[2]; first compound 0.253 µM
  relative viability: 0.828
[2]; first compound 0.8 µM
  relative viability: 0.983
[2]; first compound 2.53 µM
  relative viability: 0.717
[2]; first compound 8 µM
  relative viability: 0.444
[3]; first compound 0.08 µM
  relative viability: 0.63
[3]; first compound 0.253 µM
  relative viability: 0.632
[3]; first compound 0.8 µM
  relative viability: 0.641
[3]; first compound 2.53 µM
  relative viability: 0.303
[3]; first compound 8 µM
  relative viability: 0.417
[4]; first compound 0.08 µM
  relative viability: 0.151
[4]; first compound 0.253 µM
  relative viability: 0.345
[4]; first compound 0.8 µM
  relative viability: 0.365
[4]; first compound 2.53 µM
  relative viability: 0.234
[4]; first compound 8 µM
  relative viability: 0.138

## SK-LU-1
[1]; first compound 0.2 µM
  relative viability: 0.996
[1]; first compound 0.6325 µM
  relative viability: 1.07
[1]; first compound 2 µM
  relative viability: 0.886
[1]; first compound 6.325 µM
  relative viability: 0.724
[2]; first compound 0.253 µM
  relative viability: 0.908
[2]; first compound 0.8 µM
  relative viability: 0.931
[2]; first compound 2.53 µM
  relative viability: 0.696
[2]; first compound 8 µM
  relative viability: 0.886
[3]; first compound 0.253 µM
  relative viability: 0.906
[3]; first compound 0.8 µM
  relative viability: 1.04
[3]; first compound 2.53 µM
  relative viability: 0.738
[3]; first compound 8 µM
  relative viability: 0.714
[4]; first compound 0.253 µM
  relative viability: 0.452
[4]; first compound 0.8 µM
  relative viability: 0.474
[4]; first compound 2.53 µM
  relative viability: 0.405
[4]; first compound 8 µM
  relative viability: 0.359

## NCI-H2009
[1]; first compound 0.2 µM
  relative viability: 1.24
[1]; first compound 0.6325 µM
  relative viability: 1.16
[1]; first compound 2 µM
  relative viability: 1.24
[1]; first compound 6.325 µM
  relative viability: 1.24
[2]; first compound 0.08 µM
  relative viability: 0.884
[2]; first compound 0.253 µM
  relative viability: 1.03
[2]; first compound 0.8 µM
  relative viability: 1.05
[2]; first compound 2.53 µM
  relative viability: 0.693
[2]; first compound 8 µM
  relative viability: 0.813
[3]; first compound 0.08 µM
  relative viability: 0.972
[3]; first compound 0.253 µM
  relative viability: 1.12
[3]; first compound 0.8 µM
  relative viability: 1.11
[3]; first compound 2.53 µM
  relative viability: 0.724
[3]; first compound 8 µM
  relative viability: 1.01
[4]; first compound 0.08 µM
  relative viability: 0.597
[4]; first compound 0.253 µM
  relative viability: 0.683
[4]; first compound 0.8 µM
  relative viability: 0.703
[4]; first compound 2.53 µM
  relative viability: 0.452
[4]; first compound 8 µM
  relative viability: 0.619

## LOU-NH91
[1]; first compound 0.2 µM
  relative viability: 0.93
[1]; first compound 0.6325 µM
  relative viability: 0.978
[1]; first compound 2 µM
  relative viability: 0.669
[1]; first compound 6.325 µM
  relative viability: 0.979
[2]; first compound 0.08 µM
  relative viability: 0.709
[2]; first compound 0.253 µM
  relative viability: 0.725
[2]; first compound 0.8 µM
  relative viability: 0.74
[2]; first compound 2.53 µM
  relative viability: 0.564
[2]; first compound 8 µM
  relative viability: 0.563
[3]; first compound 0.08 µM
  relative viability: 0.376
[3]; first compound 0.253 µM
  relative viability: 0.373
[3]; first compound 0.8 µM
  relative viability: 0.444
[3]; first compound 2.53 µM
  relative viability: 0.521
[3]; first compound 8 µM
  relative viability: 0.493
[4]; first compound 0.08 µM
  relative viability: 0.851
[4]; first compound 0.253 µM
  relative viability: 0.917
[4]; first compound 0.8 µM
  relative viability: 0.898
[4]; first compound 2.53 µM
  relative viability: 0.595
[4]; first compound 8 µM
  relative viability: 0.755
